US11491168B2, “Combination of Bcl-2/Bcl-xL inhibitors and chemotherapeutic agent and use thereof” (ASCENTAGE PHARMA (SUZHOU) CO., LTD., priority 2019, dated 2022)
Several values for one entry are separate records, joined by “and”; a condition that tells them apart may be missing. Equal values may be shown once.

Columns and labels:
[1] = system: subcutaneous NCI-H146 lung cancer xenograft; test: NCI-H146 lung cancer xenograft model (Example 8); format: in vivo, female SCID mice; conditions: for RTV @day 21: Compound 15 20 mg/kg i.v. BIW, Irinotecan 5 mg/kg i.p. QW, Paclitaxel 10 mg/kg i.v. QW, Cisplatin 1 mg/kg i.p. Q4D; for mRECIST_best: best response during the treatment, PR partial response, CR complete response, SD stable disease, PD progressive disease; for T/C (%) @ day 21: doses as Table 6; for mRECIST_last: response on the last day of treatment, PR, CR, SD, PD
Protocol: The therapeutic efficacy of compound 15 alone and in multiple combinations in the treatment of subcutaneous NCI-H146 lung cancer xenograft model was evaluated.
1×10^7 NCI-H146 tumor cells were pre-treated in 0.1 mL of phosphate buffer and Matrigel (7:3) and inoculated into female SCID mice. The day of randomization was denoted as day 1. The treatment was initiated on day 1. The study was conducted in 8 groups of mice. See Table 6 for the mode of administration and doses. The entire study was taken down on day 21. The study was conducted in 40 mice. All the animals were randomized into 8 experimental groups.

[2] = system: human MGC80-3 cell line gastric cancer xenograft; test: MGC80-3 gastric cancer xenograft model
Protocol: (§4) Subcutaneous xenograft tumor model of human cancer was established in immunodeficient mouse by cell inoculation: tumor cells in logarithmic growth phase were collected, counted, and then re-suspended in 1×PBS. The concentration of the cell suspension was adjusted to 2.5-5×10^7/mL. Tumor cells were inoculated subcutaneously in the right back of the immunized normal mouse with a 1 mL syringe (4 gauge needle) at 5-10×10^6/0.2 mL/mouse.
Animal weight and tumor size were measured twice a week during the study. The animals were checked daily for morbility and etc. At the time of routine monitoring, the animal were checked for any effects of tumor growth and treatments on behaviors such as mobility, food and water consumption, body weight gain/loss, eyes, hairing and any other abnormalities. Mortality and clinical signs observed during the study were recorded in the raw data. The dosing of the drugs and the measurement of mouse weight and tumor volume were all conducted in a laminar flow cabinet. According to requirements of the study protocol, plasma and tumor tissue were collected, weighed and photographed at the end of last dosing. Plasma and tumor samples were frozen at −80° C. for later use.
(§5) Tumor volume (TV) was calculated as: TV=a×b^2/2 wherein a and b represent the measured length and width of tumor, respectively.
(§6) Relative tumor volume (RTV) was calculated as: RTV=Vt/V1 wherein V1 was the tumor volume on the first day of dosing, and Vt was the tumor volume measured on day t after dosing.
Relative tumor proliferation rate T/C (%), as an indication of anti-tumor effectiveness, was calculated as: Relative tumor proliferation rate T/C (%)=(TRTV/CRTV)×100%, wherein TRTV was RTV in treatment group, and CRTV was RTV in vehicle control group.
Tumor remission rate (%) was calculated by dividing the number of tumor bearing mice that show SD (stable disease), PR (partial regression) and CR (complete regression) after treatment by the total number of mice in the group×100%. Change of body weight (%)=(measured body weight−body weight at randomization)/body weight at randomization×100%.

[3] = system: SCLC patient-derived xenograft LU5250; test: LU5250 SCLC patient-derived xenograft; format: in vivo, female NOD.SCID mice; conditions: for T/C (%) @ day 21: doses as Table 3; for RTV @day 21: mean ± SEM, Compound 15 50 mg/kg i.v. BIW, Irinotecan 10 mg/kg i.p. Q4D, Paclitaxel 10 mg/kg i.v. Q4D
Protocol: (§1) The therapeutic efficacy of compound 15 alone and its multiple combinations in the treatment of subcutaneous HuPrime® Lung cancer xenograft model LU5250 and LU5188 in female NOD.SCID mice was evaluated.
(§2) Either LU5250 or LU5188 tumor mass with rough size of 3×3×3 mm^3 were inoculated into female NOD.SCID mice and the day of randomization was denoted as day 1. The treatment was initiated on day 1 when tumors approximated a mean volume 136 mm^3 of LU5250 and 155 mm^3 of LU5188, respectively. There were 6 groups enrolled in each model eventually. See Table 3 for the mode of administration and doses. Both models were taken down on day 21.

[4] = system: SCLC patient-derived xenograft LU5188; test: LU5188 SCLC patient-derived xenograft; format: in vivo, female NOD.SCID mice; conditions: for T/C (%) @ day 21: doses as Table 3; for RTV @day 21: mean ± SEM, Compound 15 50 mg/kg i.v. BIW, Irinotecan 10 mg/kg i.p. Q4D, Paclitaxel 10 mg/kg i.v. Q4D
Protocol: as §1, §2

[5] = system: human SW620 cell line colon cancer xenograft; test: SW620 colon cancer xenograft model; format: in vivo, mice; conditions: single agents: Compound 15 100 mg/kg; irinotecan 50 mg/kg
Protocol: as §4
(§7) Animal weight and tumor size were measured twice a week during the study. The animals were checked daily for morbility and etc. […] Mortality and clinical signs observed during the study were recorded in the raw data. […]
as §5, §6
(§8) Relative tumor proliferation rate T/C (%), as an indication of anti-tumor effectiveness, was calculated as: Relative tumor proliferation rate T/C (%)=(TRTV/CRTV)×100%, wherein TRTV was RTV in treatment group, and CRTV was RTV in vehicle control group. […]

[6] = system: human PC3 cell line prostate cancer xenograft; test: PC3 prostate cancer xenograft model; conditions: Compound 15 100 mg/kg; docetaxel 8 mg/kg
Protocol: as §4, §7, §5, §6, §8

AGS cells = test: AnnexinV/PI staining apoptosis, AGS; format: cell-based; conditions: 48 hours, Compound 31 0.3 μM, 5-FU 3 μM
Protocol: (§3) The inventors chose to combine Compound 31 with one of the most common chemotherapeutic drugs in clinic, 5-fluorouracil (5-FU). In order to investigate the effect and the potential mechanisms of Compound 31 and 5-FU on the growth of gastric cancer cells, the inventors used the AnnexinV/PI staining to detect the apoptosis of two gastric cancer cells, AGS and NCI-N87, 48 hours after the treatment with Compound 31 (0.3 μM), 5-FU (3 μM), and the combination at specified concentrations. […] In NCI-N87 cells, the combination group also achieved a higher apoptosis rate than the mono therapy groups, Compound 31 or 5-FU as a single agent leading to apoptosis rates of 24% or 18% while the combination group reaching an apoptosis rate of 46% (FIG. 29(a)).

NCI-N87 cells = test: AnnexinV/PI staining apoptosis, NCI-N87; format: cell-based; conditions: NCI-N87, 48 hours; Compound 31 0.3 μM, 5-FU 3 μM
Protocol: as §3

NCI-N87 xenograft = NCI-N87 xenograft model, Compound 15 with 5-FU; conditions: Compound 15 50 mg/kg qd 10 days; 5-FU 25 mg/kg once a week for two weeks
[7] = FIG. 6: Compound 15 100 mg/kg, docetaxel 12 mg/kg, cisplatin 3 mg/kg

Structure (SMILES) | RTV @day 21 [1] | mRECIST_best [1] | T/C (%) @ day 21 [1] | mRECIST_last [1] | T/C (%) [2, 7] | T/C (%) @ day 21 [3] | RTV @day 21 [3] | T/C (%) @ day 21 [4] | RTV @day 21 [4] | T/C (%) [5] | T/C (%) [6] | T/C (%) ([2]; FIG. 5: Compound 15 100 mg/kg, docetaxel 8 mg/kg) | apoptosis rate (AGS cells) | apoptosis rate (NCI-N87 cells) | mouse tumor volume upon the end point (NCI-N87 xenograft)
N.N.[Cl][Pt][Cl] [cisplatin] | 2.6 ± 0.2 | 2/5 SD, and 3/5 PD | 90.2% | 5/5 PD | 65.0% |  |  |  |  |  |  |  |  |  | 
CCc1c2c(nc3ccc(OC(=O)N4CCC(N5CCCCC5)CC4)cc13)-c1cc3c(c(=O)n1C2)COC(=O)[C@]3(O)CC [Irinotecan, irinotecan] | 1.0 ± 0.2 | 3/5 PR and 2/5 SD | 34.4% | 1/5 PR, and 3/5 SD, and 1/5 PD |  | 26.9% | 1.92 ± 0.24 | 61.8% | 8.41 ± 2.49 | 29.9% |  |  |  |  | 
CC(=O)O[C@@]12CO[C@@H]1C[C@H](O)[C@@]1(C)C(=O)[C@H](O)C3=C(C)[C@@H](OC(=O)[C@H](O)[C@@H](NC(=O)OC(C)(C)C)c4ccccc4)C[C@@](O)([C@@H](OC(=O)c4ccccc4)[C@H]21)C3(C)C [docetaxel] |  |  |  |  | 39.0% |  |  |  |  |  | 72.4% | 54.5% |  |  | 
O=c1[nH]cc(F)c(=O)[nH]1 [Compound 5-FU, 5-fluorouracil, reference compound] |  |  |  |  |  |  |  |  |  |  |  |  | ~15% | 18% | 2200 mm^3
CC(=O)O[C@H]1C(=O)[C@@]2(C)[C@H]([C@H](OC(=O)c3ccccc3)[C@]3(O)C[C@H](OC(=O)[C@H](O)[C@@H](NC(=O)c4ccccc4)c4ccccc4)C(C)=C1C3(C)C)[C@]1(OC(C)=O)CO[C@@H]1C[C@@H]2O [Paclitaxel, paclitaxel] | 1.4 ± 0.4 | 3/5 PR, and 2/5 SD | 48.4% | 3/5 SD, and 2/5 PD |  | 32.6% | 2.33 ± 0.13 | 151.1% | 20.55 ± 3.20 |  |  |  |  |  | 
